Results on six compounds are retold here after publication PMC8128076 (RSC Medicinal Chemistry, 2021).

Where two headings read alike, the source gives them in different places.

Data set [1] addresses T1, mTOR (Homo sapiens, UniProt P42345). The experiment in a line: LanthaScreen TR-FRET displacement binding assay, mTOR.
Another data set concerns human MDR1 (P-gp). The experiment in a line: in vitro. As to conditions: dog, MDCK-MDR1.
In data set [2] the test system is phosphorylated S6 ribosomal protein [pS6, Ser235/236]. As to conditions: read-out: Cellular assays IC50 pS6 S235/236; A2058 melanoma cells; previously reported, ref [14]; cited from earlier work.
The next data set has as its target PI3Kα (p110α) (Homo sapiens, UniProt P42336). As to conditions: read-out: In vitro binding assays Ki PI3Kα; TR-FRET displacement, mean ± SD; previously reported, ref [14]; cited from earlier work. On the technique in general: TR-FRET usually uses a lanthanide donor and a delayed reading to cut background.
Data set [3] concerns the target T1, mTOR. As to conditions: previously reported, ref [14], cited from earlier work; for SI (selectivity index), Ki(PI3Kα)/Ki(mTOR): mTOR over PI3Kα.

T1 sequence (P42345 1360-2549): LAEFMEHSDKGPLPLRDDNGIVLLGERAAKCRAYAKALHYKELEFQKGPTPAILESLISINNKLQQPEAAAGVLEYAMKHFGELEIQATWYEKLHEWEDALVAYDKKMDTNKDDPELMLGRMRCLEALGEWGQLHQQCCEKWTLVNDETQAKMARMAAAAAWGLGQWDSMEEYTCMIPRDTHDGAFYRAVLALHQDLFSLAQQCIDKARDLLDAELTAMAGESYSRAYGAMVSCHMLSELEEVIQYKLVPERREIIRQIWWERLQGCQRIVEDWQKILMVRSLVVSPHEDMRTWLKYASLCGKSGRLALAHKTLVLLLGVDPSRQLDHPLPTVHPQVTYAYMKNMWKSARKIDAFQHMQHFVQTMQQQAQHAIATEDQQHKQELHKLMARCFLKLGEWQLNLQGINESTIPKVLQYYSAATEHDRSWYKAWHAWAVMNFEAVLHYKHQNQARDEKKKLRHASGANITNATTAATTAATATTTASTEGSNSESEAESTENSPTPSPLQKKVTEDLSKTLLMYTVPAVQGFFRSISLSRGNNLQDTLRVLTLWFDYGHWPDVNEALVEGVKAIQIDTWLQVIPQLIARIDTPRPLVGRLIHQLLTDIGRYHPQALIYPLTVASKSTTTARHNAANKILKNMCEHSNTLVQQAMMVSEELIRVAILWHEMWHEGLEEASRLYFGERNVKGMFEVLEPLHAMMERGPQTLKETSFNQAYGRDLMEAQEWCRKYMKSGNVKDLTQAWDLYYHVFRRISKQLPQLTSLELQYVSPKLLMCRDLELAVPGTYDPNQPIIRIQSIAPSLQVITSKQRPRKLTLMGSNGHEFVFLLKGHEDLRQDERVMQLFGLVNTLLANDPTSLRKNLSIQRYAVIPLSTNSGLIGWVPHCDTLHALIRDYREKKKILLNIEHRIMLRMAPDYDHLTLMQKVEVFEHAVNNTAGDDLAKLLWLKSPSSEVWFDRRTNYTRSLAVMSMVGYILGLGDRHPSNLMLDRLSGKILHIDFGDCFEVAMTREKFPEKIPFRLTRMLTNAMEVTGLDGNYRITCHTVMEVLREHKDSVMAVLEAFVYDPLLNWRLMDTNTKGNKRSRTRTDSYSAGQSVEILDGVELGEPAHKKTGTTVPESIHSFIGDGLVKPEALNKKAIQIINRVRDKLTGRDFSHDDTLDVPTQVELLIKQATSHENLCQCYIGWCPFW
Sequence of PI3Kα (p110α) (P42336 whole entry): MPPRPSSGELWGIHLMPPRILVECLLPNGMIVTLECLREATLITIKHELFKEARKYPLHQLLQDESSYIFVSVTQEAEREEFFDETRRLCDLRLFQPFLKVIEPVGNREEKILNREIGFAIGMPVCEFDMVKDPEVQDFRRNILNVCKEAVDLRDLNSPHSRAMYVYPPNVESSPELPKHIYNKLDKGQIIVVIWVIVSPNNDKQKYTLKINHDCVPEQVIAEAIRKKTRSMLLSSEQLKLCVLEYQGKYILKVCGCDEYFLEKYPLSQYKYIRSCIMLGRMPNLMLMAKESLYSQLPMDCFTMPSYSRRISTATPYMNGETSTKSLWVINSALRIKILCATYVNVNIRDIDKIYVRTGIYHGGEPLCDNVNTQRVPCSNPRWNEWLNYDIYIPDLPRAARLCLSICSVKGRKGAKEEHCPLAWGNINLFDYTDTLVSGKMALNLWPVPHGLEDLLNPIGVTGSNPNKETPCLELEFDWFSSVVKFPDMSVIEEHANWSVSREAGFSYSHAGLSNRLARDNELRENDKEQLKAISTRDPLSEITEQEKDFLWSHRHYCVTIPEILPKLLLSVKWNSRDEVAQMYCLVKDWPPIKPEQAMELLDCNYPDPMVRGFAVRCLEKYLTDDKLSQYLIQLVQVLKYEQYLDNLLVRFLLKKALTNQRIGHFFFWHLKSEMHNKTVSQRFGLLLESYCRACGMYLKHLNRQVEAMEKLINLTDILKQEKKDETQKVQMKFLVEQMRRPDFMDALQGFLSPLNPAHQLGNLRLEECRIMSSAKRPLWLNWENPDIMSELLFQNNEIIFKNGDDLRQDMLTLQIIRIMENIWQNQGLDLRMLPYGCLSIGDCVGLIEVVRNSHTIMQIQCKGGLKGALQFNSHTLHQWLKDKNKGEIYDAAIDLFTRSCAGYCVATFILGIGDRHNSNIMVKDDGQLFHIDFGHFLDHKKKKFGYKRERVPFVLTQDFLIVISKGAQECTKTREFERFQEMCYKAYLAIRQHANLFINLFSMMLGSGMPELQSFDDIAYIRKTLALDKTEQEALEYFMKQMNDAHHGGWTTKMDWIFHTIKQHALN
Sequence of PI3Kα (p110α) (P27986 whole entry partner): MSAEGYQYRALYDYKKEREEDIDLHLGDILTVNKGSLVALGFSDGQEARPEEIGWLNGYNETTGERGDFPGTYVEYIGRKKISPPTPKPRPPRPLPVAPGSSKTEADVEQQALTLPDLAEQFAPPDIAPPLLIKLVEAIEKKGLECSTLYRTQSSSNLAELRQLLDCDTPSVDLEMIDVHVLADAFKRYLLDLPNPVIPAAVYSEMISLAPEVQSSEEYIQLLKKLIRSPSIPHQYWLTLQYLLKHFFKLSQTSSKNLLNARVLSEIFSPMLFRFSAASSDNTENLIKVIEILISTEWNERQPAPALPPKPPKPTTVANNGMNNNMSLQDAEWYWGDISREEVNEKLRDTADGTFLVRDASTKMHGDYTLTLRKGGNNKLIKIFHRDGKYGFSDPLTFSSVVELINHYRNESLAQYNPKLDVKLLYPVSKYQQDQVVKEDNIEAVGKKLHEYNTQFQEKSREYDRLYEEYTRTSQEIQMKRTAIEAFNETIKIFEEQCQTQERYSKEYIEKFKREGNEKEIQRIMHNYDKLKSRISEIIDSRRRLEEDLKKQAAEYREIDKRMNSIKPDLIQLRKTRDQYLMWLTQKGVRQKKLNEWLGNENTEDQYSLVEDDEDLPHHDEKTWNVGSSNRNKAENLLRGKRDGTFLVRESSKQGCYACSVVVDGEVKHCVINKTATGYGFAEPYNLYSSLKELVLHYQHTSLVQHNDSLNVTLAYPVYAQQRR

Turning to `C[C@@H]1COCCN1c1nc(-c2nc(N)ns2)nc2c1C[C@@H]1COCCN21` [Compound 2], the “fold decrease in mTOR affinity” value on mTOR [1] (1,2,4-thiadiazole 2 versus pyrimidine 1) is reported as > 10 fold.

Take `C[C@@H]1COCCN1c1nc(-c2nnc(N)s2)nc2c1C[C@@H]1COCCN21` [Compound 4]: in the data set on human MDR1 (P-gp), the Papp (in general, a coefficient for how fast a substance crosses the barrier) was < 60 ×10⁻⁶ cm/s.

As for `C[C@@H]1COCCN1c1nc(-c2ccc(N)nc2)nc2c1C[C@@H]1COCCN21` [Compound 5], the IC50 in data set [2] is 61 ± 12 nM. Also, the Ki (commonly a measure of affinity in units of concentration, obtained from inhibition or displacement) on PI3Kα (p110α) was 2150 ± 400 nM; on mTOR [3] (read-out: In vitro binding assays Ki mTOR, TR-FRET displacement, mean ± SD) it was 10 ± 1.6 nM. Moreover, on mTOR [3], the “SI (selectivity index), Ki(PI3Kα)/Ki(mTOR)” value (“SI (selectivity index)” for short) was 215.

For `C[C@@H]1COCCN1c1nc(-c2cnc(N)s2)nc2c1C[C@@H]1COCCN21` [Compound 6], in the data set with human MDR1 (P-gp), the Papp is < 60 ×10⁻⁶ cm/s.

`C[C@@H]1COCCN1c1nc(-c2cnc(N)nc2C(F)F)nc2c1C[C@@H]1COCCN21` [Compound 8]: the “SI (selectivity index)” value on mTOR [1] (mTOR over PI3Kα) is < 1.

In the case of `C[C@@H]1COCCN1c1nc(-c2cnc(N)cn2)nc2c1C[C@@H]1COCCN21` [Compound 12b, reference compound], the IC50 in data set [2] was 60 ± 13 nM. Also, in the data set with human MDR1 (P-gp), the Papp is < 60 ×10⁻⁶ cm/s. For the same compound, the Ki on PI3Kα (p110α) was 1690 ± 277 nM. For the same compound, on mTOR [3], the “SI (selectivity index)” value is 212.
